Measurements from US20240280564A1, “ASSAY FOR EXTRINSIC INHIBITION” (The J. David Gladstone Institutes, a testamentary trust …, priority 2021, published 2024).

How the values were obtained:
primary rat OPCs = test: OPC-X-screen: high-content imaging of MBP+ OLs and GFAP+ astrocytes in fibrinogen-treated OPCs; assay type: cell-based; details: for OPC differentiation to mature MBP+ OLs in the presence of fibrinogen: myelin-promoting compound screen, fibrinogen 1.5 mg/ml, benztropine, clemastine, quetiapine, miconazole, (±)U-50488, DMH1 1 μM, clobetasol 5 μM, XAV-939 0.1 μM; for Cell-fate switch of OPCs to GFAP+ cells by fibrinogen: fibrinogen-treated primary rat OPCs
[1] = system: BMP signal transducers SMAD1/5 (phosphorylation); test: Immunoblot of phospho-SMAD1/5 in fibrinogen-treated primary rat OPCs; assay type: cell-based
Description: (§1) Cells or tissue were lysed in RIPA lysis buffer (Thermo Fisher Scientific) supplemented with protease/phosphatase inhibitor cocktails (Calbiochem) and lysates were cleared by centrifuging at 13,000×g for 15 minutes at 4° C. Equal amounts of protein were loaded in 4%-12% bis-tris gels (Thermo Fisher Scientific) and analyzed by western blotting. Bands were visualized with HRP-conjugated secondary antibodies (Cell Signaling Technology). Densitometry was performed using ImageJ Software (NIH) with values for each band normalized to GAPDH loading controls from the same membrane. Primary antibodies were: Id2 (1:1000, rabbit monoclonal, #M213, CalBioreagents); phospho-Smad1/5 (1:1000, rabbit monoclonal, #9516, Cell Signaling Technology); GAPDH (1:1000, rabbit monoclonal, #2118, Cell Signaling Technology)

BMP target protein ID2 = test: Immunoblot of ID2 protein in fibrinogen-treated primary rat OPCs; assay type: cell-based
Description: as §1

[2] = cited from earlier work
NOD-MOG35-55 EAE mice = test: Progressive NOD-MOG35-55 EAE, therapeutic treatment; assay type: in vivo, mouse
MOG35-55 EAE mice = test: Chronic MOG35-55 EAE in NG2-CreERTM:RosatdTomato/+ mice, therapeutic treatment; assay type: in vivo, mouse
[3] = fibrinogen alone in the OPC-X assay
[4] = fibrinogen 2.5 mg/ml, three-fold serial dilutions 5 μM to 2 nM, 3 days

Molecule: C[C@H]1C[C@H]2[C@@H]3CCC4=CC(=O)C=C[C@]4(C)[C@@]3(F)[C@@H](O)C[C@]2(C)[C@@]1(O)C(=O)CCl [clobetasol]
- OPC differentiation to mature MBP+ OLs in the presence of fibrinogen (primary rat OPCs; 3 days): did not overcome extrinsic inhibition of OPC differentiation by fibrinogen

Molecule: CN1CCC[C@@H]1CCO[C@](C)(c1ccccc1)c1ccc(Cl)cc1 [clemastine]
- Fibrinogen-induced phosphorylation of SMAD1/5 [1]: did not block
- OPC differentiation to mature OLs in the presence of fibrinogen (clemastine dose-response) (primary rat OPCs; fibrinogen 2.5 mg/ml, differentiation media without T3 or growth factors, 3 days): did not enhance OPC differentiation to mature OLs in the presence of fibrinogen
- Cell-fate switch of OPCs to GFAP+ cells by fibrinogen (primary rat OPCs; 3 days): did not inhibit SMAD1/5 phosphorylation, a key pathway downstream of BMP receptor activation, or rescue OPC cell fate switch to astrocytes
- OPC differentiation to mature MBP+ OLs in the presence of fibrinogen (primary rat OPCs; 3 days): did not overcome extrinsic inhibition of OPC differentiation by fibrinogen
- Number of MBP+ cells in control conditions (primary rat OPCs; no fibrinogen, differentiation media without T3 or growth factors, 3 days): increased
- Fibrinogen-induced expression of ID2 (BMP target protein ID2): did not block

Molecule: OCCOCCN1CCN(C2=Nc3ccccc3Sc3ccccc32)CC1 [quetiapine]
- OPC differentiation to mature MBP+ OLs in the presence of fibrinogen (primary rat OPCs; 3 days): did not overcome extrinsic inhibition of OPC differentiation by fibrinogen

Molecule: Clc1ccc(COC(Cn2ccnc2)c2ccc(Cl)cc2Cl)c(Cl)c1 (stereo not drawn) [miconazole]
- OPC differentiation to mature MBP+ OLs in the presence of fibrinogen (primary rat OPCs; 3 days): did not overcome extrinsic inhibition of OPC differentiation by fibrinogen

Molecule: fibrinogen
- Decrease of MBP+ mature OLs as compared to controls (primary rat OPCs; [3]): ~60%
- Increase of GFAP+ astrocyte-like cells as compared to controls (primary rat OPCs; [3]): ~60%

Molecule: CC(C)Oc1ccc(-c2cnc3c(-c4ccnc5ccccc45)cnn3c2)cc1 [DMH1]
- Fibrinogen-induced phosphorylation of SMAD1/5 [1]: blocked
- Cell-fate switch of OPCs to GFAP+ cells by fibrinogen (primary rat OPCs; 3 days): abolished
- OPC differentiation to mature MBP+ OLs in the presence of fibrinogen (primary rat OPCs; 3 days): restored OPC differentiation to mature OLs to control levels
- Fibrinogen-induced expression of ID2 (BMP target protein ID2): blocked
- Water solubility [2]: not water-soluble

Molecule: c1cc(-c2cnn3cc(-c4ccc(N5CCNCC5)cc4)cnc23)c2cccnc2c1 [LDN-212854]
- Formation of GFAP+ astrocytes from fibrinogen-treated OPCs, dose response (primary rat OPCs; [4]): blocked
- Mature OL (MBP+) differentiation of fibrinogen-treated OPCs, dose response (primary rat OPCs; [4]): restored mature OL differentiation
- Group mean of maximum clinical scores (NOD-MOG35-55 EAE mice; 30 days treatment, five-point scale, saline 2.36): 1.75
- Clinical scores (NOD-MOG35-55 EAE mice; treated for 30 days, vs saline): significantly improved
- Demyelination in spinal cord (NOD-MOG35-55 EAE mice; vs saline): reduced
- Fibrinogen deposition in spinal cord (NOD-MOG35-55 EAE mice; vs saline): reduced
- Clinical scores (MOG35-55 EAE mice; 6 mg/kg twice daily for 14 days starting at peak disease, vs saline): significantly improved
- Formation of OPC-derived GFAP+ astrocytes (MOG35-55 EAE mice; 14 day treatment, fate mapping): abolished
- Proportion of NG2tdTomato+ OPCs differentiated into GST-pi+ mature OLs (MOG35-55 EAE mice; 14 day treatment, fate mapping, vs controls): increased
- ID2 expression in NG2 cells in the EAE white matter (MOG35-55 EAE mice; 14 day treatment, vs saline): decreased
- Myelin damage (myelin circularity, in vivo 2P imaging) (MOG35-55 EAE mice; chronic, vs saline): markedly reduced
- Perivascular NG2 clusters (in vivo 2P imaging) (MOG35-55 EAE mice; chronic, vs saline): markedly reduced
- Demyelination in spinal cord (MOG35-55 EAE mice; vs saline): reduced
- Fibrinogen deposition in spinal cord (MOG35-55 EAE mice; vs saline): reduced
- Water solubility [2]: water-soluble

Molecule: Oc1nc(-c2ccc(C(F)(F)F)cc2)nc2c1CSCC2 [XAV-939]
- OPC differentiation to mature MBP+ OLs in the presence of fibrinogen (primary rat OPCs; 3 days): did not overcome extrinsic inhibition of OPC differentiation by fibrinogen

Molecule: CN1[C@@H]2CC[C@H]1C[C@@H](OC(c1ccccc1)c1ccccc1)C2 [benztropine]
- OPC differentiation to mature MBP+ OLs in the presence of fibrinogen (primary rat OPCs; 3 days): did not overcome extrinsic inhibition of OPC differentiation by fibrinogen
